Measured values as given in patent US20250296959A1, “B7-H3 TARGETING PEPTIDES AND CONSTRUCTS THEREOF” (Mariana Oncology Inc., priority 2024, published 2025).
Read-outs that look alike come from different tables or passages of the source. Starred links: 1 amine or outer side, 2 acyl side, 3 side chain; linkers in the order of their positions; H or OH if unused. Positions of bridges follow the written chain, without caps; N, C: chain ends. Non-standard residues stand in square brackets, D forms with d. Residues, ends and D or L forms follow the SMILES beside them. Groups on a side chain read outwards from the residue. *: point of attachment. X2 = O=C(O)CN1CCN(CC(=O)O)CCN(CC(=O)NCCOCCOCCOCCOCC(=O)*)CCN(CC(=O)O)CC1; Ala(piperidin-4-yl) = O=C([C@H](CC1CCN([*:3])CC1)N[*:1])[*:2]; DOTA = O=C(O)CN1CCN(CC(=O)O)CCN(CC(=O)*)CCN(CC(=O)O)CC1; Phe(4-COOH) = N[C@@H](Cc1ccc(C(=O)O)cc1)C(=O)O; Trp(5-F) = N[C@@H](Cc1c[nH]c2ccc(F)cc12)C(=O)O; Ala(4-THP) = N[C@@H](CC1CCOCC1)C(=O)O; X3 = O=C([C@H](CCC1CCC1)N[*:1])[*:2]; Val(3-OH) = CC(C)(O)[C@H](N)C(=O)O; 4Pal = N[C@@H](Cc1ccncc1)C(=O)O; Tle = CC(C)(C)[C@H](N)C(=O)O; hLeu = CC(C)CC[C@H](N)C(=O)O; Dab = NCC[C@H](N)C(=O)O

Legend:
[1] = tested on: Calu-6 cell line; test: Cell associated (bound) fraction of [177Lu]Lu-labeled peptide in Calu-6 cells; assay type: cell-based, Human; details: 1 hour, 37° C.
Procedure, shortened: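 Peptide conjugate was labelled with [177Lu]LuCl3 in ammonium acetate pH ~5 at 80 °C for 17-20 min, with purity checked by RP-HPLC. Calu-6 suspensions (5 million cells/mL in 1% PBSA) were incubated with 0.8 μCi for 1 h at 37 °C. Cell pellets were gamma-counted after two cold PBS/BSA washes, giving the bound fraction against the unbound supernatant plus washes.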

[2] = tested on: Calu-6 cell line; test: Net internalization of [177Lu]Lu-labeled peptide in Calu-6 cells; assay type: cell-based, Human; details: 1 hour, 37° C., glycine pH 2.5 acid wash
Procedure, shortened: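 Peptide conjugate labeled with [177Lu]LuCl3 at pH ~5, 80 °C, 17–20 min, and purity checked by RP-HPLC. B7-H3-expressing human Calu-6 lung cancer cells at 5 million cells/mL in 1% PBSA. Internalized fraction: counts left after two 3 min 50 mM glycine pH 2.5 washes and NaOH lysis, gamma counted against bound fraction.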

[3] = target: T1, human 4lg B7-H3 (Homo sapiens, UniProt Q5ZPR3); test: Affinity determination by surface plasmon resonance (SPR) to 4Ig B7-H3; details: 4Ig B7-H3
T1 sequence (Q5ZPR3 29-534): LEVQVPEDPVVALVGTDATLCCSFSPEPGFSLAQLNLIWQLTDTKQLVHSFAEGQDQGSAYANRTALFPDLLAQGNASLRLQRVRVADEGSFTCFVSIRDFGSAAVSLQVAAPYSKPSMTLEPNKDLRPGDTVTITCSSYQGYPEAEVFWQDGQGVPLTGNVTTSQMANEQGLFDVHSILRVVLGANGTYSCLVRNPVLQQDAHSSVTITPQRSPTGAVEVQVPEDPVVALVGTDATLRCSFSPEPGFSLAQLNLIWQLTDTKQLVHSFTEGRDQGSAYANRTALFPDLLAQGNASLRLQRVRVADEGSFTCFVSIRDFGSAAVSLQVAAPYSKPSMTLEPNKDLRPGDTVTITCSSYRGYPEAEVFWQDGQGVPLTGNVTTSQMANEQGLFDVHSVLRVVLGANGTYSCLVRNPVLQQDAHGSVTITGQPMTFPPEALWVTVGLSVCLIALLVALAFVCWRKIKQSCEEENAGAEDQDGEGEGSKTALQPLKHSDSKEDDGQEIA

[4] = read-out: SPR KD—25° C., 25° C. flow cell temperature
[5] = read-out: SPR KD—37° C., 37° C. flow cell temperature

Structure (SMILES) | % cell associated fraction [1] | % net internalization [2] | Kd ([3]; SPR KD—25° C., 25° C. flow cell temperature) [nM] | Kd ([3]; SPR KD—37° C., 37° C. flow cell temperature) [nM] | Kd [3, 4] [nM] | Kd [3, 5] [nM]
CC(=O)N[C@@H](CCC(C)C)C(=O)N[C@@H](Cc1ccc(O)cc1)C(=O)N[C@H]1CSSC[C@@H](C(=O)N[C@@H](Cc2c[nH]c3ccc(F)cc23)C(=O)N[C@@H](Cc2ccccc2)C(=O)N2CCC[C@H]2C(=O)N[C@H](CCCCNC(=O)COCCOCCOCCOCCNC(=O)CN2CCN(CC(=O)O)CCN(CC(=O)O)CCN(CC(=O)O)CC2)C(N)=O)NC(=O)[C@H](Cc2ccc(O)cc2)NC(=O)[C@H](C(C)C)NC(=O)[C@H](CC(=O)O)NC(=O)[C@H](CC2CCOCC2)NC(=O)[C@H](CCCCN)NC(=O)CNC(=O)[C@H](C(C)C)NC1=O [compound 282, Ac-hLeu-Y-C-V-G-K-ThpA-D-V-Y-C-5FW-F-Pro-dLys(PEG4-DOTA)-CONH2] (Ac-[hLeu]YCVGK[Ala(4-THP)]DVYC[Trp(5-F)]FP[dK](X2)-NH2; disulfide 3-11) | B (25<%≤50) | A (%≤25) | < 1 |  |  | 
CC(=O)N[C@@H](CCC(C)C)C(=O)N[C@@H](Cc1ccc(O)cc1)C(=O)N[C@H]1CSSC[C@@H](C(=O)N[C@@H](Cc2c[nH]c3ccc(F)cc23)C(=O)N[C@@H](Cc2ccccc2)C(=O)N[C@H](C(=O)N[C@H](CCCCNC(=O)CN2CCN(CC(=O)O)CCN(CC(=O)O)CCN(CC(=O)O)CC2)C(=O)O)C(C)(C)O)NC(=O)[C@H](Cc2ccc(O)cc2)NC(=O)[C@H](C(C)C)NC(=O)[C@H](CC(=O)O)NC(=O)[C@H](CC2CCOCC2)NC(=O)[C@H](CCN)NC(=O)CNC(=O)[C@H](C(C)(C)C)NC1=O [compound 371, Ac-hLeu-Y-C-Tbg-G-Dab-ThpA-D-V-Y-C-5FW-F-hydroxyVal-dLys(DOTA)-COOH] (Ac-[hLeu]YC[Tle]G[Dab][Ala(4-THP)]DVYC[Trp(5-F)]F[Val(3-OH)][dK](DOTA)-OH; disulfide 3-11) | B (25<%≤50) | A (%≤25) |  | < 1 |  | 
CC(=O)N[C@@H](CCC(C)C)C(=O)N[C@@H](Cc1ccc(O)cc1)C(=O)N[C@H]1CSSC[C@@H](C(=O)N[C@@H](Cc2c[nH]c3ccc(F)cc23)C(=O)N[C@@H](Cc2ccccc2)C(=O)N[C@H](C(=O)N[C@H](CCCCNC(=O)CN2CCN(CC(=O)O)CCN(CC(=O)O)CCN(CC(=O)O)CC2)C(N)=O)[C@@H](C)O)NC(=O)[C@H](Cc2ccc(O)cc2)NC(=O)[C@H](C(C)C)NC(=O)[C@H](CC(=O)O)NC(=O)[C@H](Cc2ccc(O)cc2)NC(=O)[C@H](CCCCN)NC(=O)CNC(=O)[C@H](C(C)(C)C)NC1=O [compound 76, Ac-hLeu-Y-C-Tbg-G-K-Y-D-V-Y-C-5FW-F-Thr-dLys(DOTA)-CONH2] (Ac-[hLeu]YC[Tle]GKYDVYC[Trp(5-F)]FT[dK](DOTA)-NH2; disulfide 3-11) | C (%>50) | A (%≤25) |  |  | < 1 | 
CC(=O)N[C@@H](CCC(C)C)C(=O)N[C@@H](Cc1ccc(O)cc1)C(=O)N[C@H]1CSSC[C@@H](C(=O)N[C@@H](Cc2c[nH]c3ccccc23)C(=O)N[C@@H](Cc2ccccc2)C(=O)N[C@H](C(=O)N[C@H](CCCCNC(=O)CN2CCN(CC(=O)O)CCN(CC(=O)O)CCN(CC(=O)O)CC2)C(N)=O)[C@@H](C)O)NC(=O)[C@H](Cc2ccc(O)cc2)NC(=O)[C@H](C(C)C)NC(=O)[C@H](CC(=O)O)NC(=O)[C@H](Cc2ccncc2)NC(=O)[C@H](CCCCN)NC(=O)CNC(=O)[C@H](C(C)(C)C)NC1=O [compound 157, Ac-hLeu-Y-C-Tbg-G-K-4PyA-D-V-Y-C-W-F-Thr-dLys(DOTA)-CONH2] (Ac-[hLeu]YC[Tle]GK[4Pal]DVYCWFT[dK](DOTA)-NH2; disulfide 3-11) | B (25<%≤50) | A (%≤25) |  |  | < 1 | 
CC(=O)N[C@@H](CCC1CCC1)C(=O)N[C@@H](Cc1ccc(O)cc1)C(=O)N[C@H]1CSSC[C@@H](C(=O)N[C@@H](Cc2c[nH]c3ccc(F)cc23)C(=O)N[C@@H](Cc2ccccc2)C(=O)N[C@H](C(=O)N[C@H](CCCCNC(=O)CN2CCN(CC(=O)O)CCN(CC(=O)O)CCN(CC(=O)O)CC2)C(=O)O)C(C)(C)O)NC(=O)[C@H](Cc2ccc(O)cc2)NC(=O)[C@H](C(C)C)NC(=O)[C@H](CC(=O)O)NC(=O)[C@H](CC2CCOCC2)NC(=O)[C@H](CCCCN)NC(=O)CNC(=O)[C@H](C(C)(C)C)NC1=O [compound 398, Ac-hCba-Y-C-Tbg-G-K-ThpA-D-V-Y-C-5FW-F-hydroxyVal-dLys(DOTA)-COOH] (Ac-[X3]YC[Tle]GK[Ala(4-THP)]DVYC[Trp(5-F)]F[Val(3-OH)][dK](DOTA)-OH; disulfide 3-11) | B (25<%≤50) | A (%≤25) |  |  |  | < 1
CC(=O)N[C@@H](CCC(C)C)C(=O)N[C@@H](Cc1ccc(O)cc1)C(=O)N[C@H]1CSSC[C@@H](C(=O)N[C@@H](Cc2c[nH]c3ccc(F)cc23)C(=O)N[C@@H](Cc2ccccc2)C(=O)N[C@H](C(=O)N[C@H](CCCCNC(=O)[C@H](CCC(=O)O)NC(=O)CN2CCN(CC(=O)O)CCN(CC(=O)O)CCN(CC(=O)O)CC2)C(=O)O)C(C)(C)O)NC(=O)[C@H](Cc2ccc(O)cc2)NC(=O)[C@H](C(C)C)NC(=O)[C@H](CC(=O)O)NC(=O)[C@H](CC2CCOCC2)NC(=O)[C@H](CC2CCNCC2)NC(=O)CNC(=O)[C@H](C(C)(C)C)NC1=O [compound 428, Ac-hLeu-Y-C-Tbg-G-PipAla-ThpA-D-V-Y-C-5FW-F-hydroxyVal-dLys(Glu-DOTA)-COOH] (Ac-[hLeu]YC[Tle]G[Ala(piperidin-4-yl)][Ala(4-THP)]DVYC[Trp(5-F)]F[Val(3-OH)][dK]([Glu-DOTA])-OH; disulfide 3-11) | B (25<%≤50) | A (%≤25) |  |  |  | < 1
CC(=O)N[C@@H](CCC(C)C)C(=O)N[C@@H](Cc1ccc(O)cc1)C(=O)N[C@H]1CSSC[C@@H](C(=O)N[C@@H](Cc2c[nH]c3ccc(F)cc23)C(=O)N[C@@H](Cc2ccccc2)C(=O)N2CCC[C@H]2C(=O)N[C@H](CCCCNC(=O)CN2CCN(CC(=O)O)CCN(CC(=O)O)CCN(CC(=O)O)CC2)C(N)=O)NC(=O)[C@H](Cc2ccc(O)cc2)NC(=O)[C@H](C(C)C)NC(=O)[C@H](CC(=O)O)NC(=O)[C@H](Cc2ccc(C(=O)O)cc2)NC(=O)[C@H](CC2CCNCC2)NC(=O)CNC(=O)[C@H](C(C)C)NC1=O [compound 286, Ac-hLeu-Y-C-V-G-PipAla-4COOHPhe-D-V-Y-C-5FW-F-Pro-dLys(DOTA)-CONH2] (Ac-[hLeu]YCVG[Ala(piperidin-4-yl)][Phe(4-COOH)]DVYC[Trp(5-F)]FP[dK](DOTA)-NH2; disulfide 3-11) | C (%>50) | A (%≤25) |  |  | < 1 | 1 to 10
CC(=O)N[C@@H](CCC(C)C)C(=O)N[C@@H](Cc1ccc(O)cc1)C(=O)N[C@H]1CSSC[C@@H](C(=O)N[C@@H](Cc2c[nH]c3ccc(F)cc23)C(=O)N[C@@H](Cc2ccccc2)C(=O)N2CCC[C@H]2C(=O)N[C@H](CCCCNC(=O)CN2CCN(CC(=O)O)CCN(CC(=O)O)CCN(CC(=O)O)CC2)C(=O)O)NC(=O)[C@H](Cc2ccc(O)cc2)NC(=O)[C@H](C(C)C)NC(=O)[C@H](CC(=O)O)NC(=O)[C@H](CC2CCOCC2)NC(=O)[C@H](CCCCN)NC(=O)CNC(=O)[C@H](C(C)C)NC1=O [compound 288, Ac-hLeu-Y-C-V-G-K-ThpA-D-V-Y-C-5FW-F-Pro-dLys(DOTA)-COOH] (Ac-[hLeu]YCVGK[Ala(4-THP)]DVYC[Trp(5-F)]FP[dK](DOTA)-OH; disulfide 3-11) | B (25<%≤50) | A (%≤25) |  |  | < 1 | 
CC(=O)N[C@@H](CCC(C)C)C(=O)N[C@@H](Cc1ccc(O)cc1)C(=O)N[C@H]1CSSC[C@@H](C(=O)N[C@@H](Cc2c[nH]c3ccccc23)C(=O)N[C@@H](Cc2ccccc2)C(=O)N[C@H](C(=O)N[C@H](CCCCNC(=O)CN2CCN(CC(=O)O)CCN(CC(=O)O)CCN(CC(=O)O)CC2)C(N)=O)[C@@H](C)O)NC(=O)[C@H](Cc2ccc(O)cc2)NC(=O)[C@H](C(C)C)NC(=O)[C@H](CC(=O)O)NC(=O)[C@H](Cc2ccc(O)cc2)NC(=O)[C@H](CCCCN)NC(=O)CNC(=O)[C@H](C(C)(C)C)NC1=O [compound 72, Ac-hLeu-Y-C-Tbg-G-K-Y-D-V-Y-C-W-F-Thr-dLys(DOTA)-CONH2] (Ac-[hLeu]YC[Tle]GKYDVYCWFT[dK](DOTA)-NH2; disulfide 3-11) | C (%>50) | A (%≤25) |  |  | < 1 | 
